Drawing on publication PMC6190683 (Bioorganic & medicinal chemistry letters, 2017), this text covers IC50 for four molecules.

The assay deals with Mtb NadE (Mycobacterium tuberculosis, UniProt P9WJJ3). The assay can be described thus: ammonia-dependent Mtb NadE inhibition assay. The format is biochemical.
Mtb NadE, sequence (P9WJJ3 whole entry): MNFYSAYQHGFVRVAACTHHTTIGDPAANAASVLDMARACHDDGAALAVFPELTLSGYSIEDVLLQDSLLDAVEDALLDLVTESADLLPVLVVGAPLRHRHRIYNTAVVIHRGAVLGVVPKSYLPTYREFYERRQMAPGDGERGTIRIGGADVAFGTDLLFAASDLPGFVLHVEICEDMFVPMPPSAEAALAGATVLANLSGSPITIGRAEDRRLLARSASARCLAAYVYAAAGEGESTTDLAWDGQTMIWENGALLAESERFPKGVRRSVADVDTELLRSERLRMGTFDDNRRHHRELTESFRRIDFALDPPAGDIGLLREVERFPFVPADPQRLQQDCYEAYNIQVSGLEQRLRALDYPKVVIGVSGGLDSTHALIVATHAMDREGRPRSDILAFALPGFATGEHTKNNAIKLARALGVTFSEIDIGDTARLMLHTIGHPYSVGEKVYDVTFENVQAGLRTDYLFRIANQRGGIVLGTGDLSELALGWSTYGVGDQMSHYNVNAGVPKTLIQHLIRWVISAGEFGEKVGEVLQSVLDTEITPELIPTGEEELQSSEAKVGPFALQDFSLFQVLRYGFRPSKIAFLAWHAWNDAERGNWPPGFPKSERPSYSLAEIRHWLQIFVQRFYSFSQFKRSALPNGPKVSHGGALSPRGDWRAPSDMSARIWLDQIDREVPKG
As for `COc1ccc(NS(=O)(=O)c2ccc(NC(=O)Nc3ccc([N+](=O)[O-])cc3)cc2)cc1` [Compound 4d], the IC50 was > 200 µM.
Under `O=C(Nc1ccc([N+](=O)[O-])cc1)Nc1ccc(S(=O)(=O)Nc2ccc([N+](=O)[O-])cc2)cc1` [Compound 4f] stands > 200 µM; under `O=C(Nc1ccc([N+](=O)[O-])cc1)Nc1ccc(S(=O)(=O)Nc2cccc(C(F)(F)F)c2)cc1` [Compound 4h], > 200 µM; under `O=C(Nc1ccc([N+](=O)[O-])cc1)Nc1ccc(S(=O)(=O)Nc2ccccc2)cc1` [Compound 4l], > 200 µM.
